Assay results reported in ChEMBL document CHEMBL3272075, “Direct measurement of octanol-water partition coefficients by high-pressure liquid chromatography” (J Med Chem, 1976).

How the values were obtained:
physchem [1] = conditions: octanol/water
Description: Partition coefficient, log P of the compound by HPLC analysis

physchem [2] = conditions: octanol/water; remark: listed apart in the source
Description: Partition coefficient, log P of the compound by shake-flask technique

Row | SMILES | logP (physchem [1]) | logP (physchem [2])
1 | Brc1cnc2ccccc2c1 | 3.03 | –
2 | Cc1ccnc2ccccc12 | 2.52 | –
3 | Cc1cccnc1 [3-METHYLPYRIDINE] | 1.2 | –
4 | CC(=O)Nc1ccccc1 [ACETANILIDE] | 1.14 | 1.16
5 | c1ccc2nc3ccccc3cc2c1 [ACRIDINE] | 3.39 | 3.4
6 | COc1ccccc1 [ANISOLE] | 2.1 | –
7 | Nc1ccncc1 [DALFAMPRIDINE] | 0.26 | 0.28
8 | c1ccc2cnccc2c1 [ISOQUINOLINE] | 2.09 | 2.08
9 | c1ccc2nc3ccccc3nc2c1 [PHENAZINE] | 2.81 | 2.85
10 | CC(=O)Nc1ccc(OCC(O)CNC(C)C)cc1 (stereo not drawn) [PRACTOLOL] | 0.78 | 0.79
11 | c1ccc2ncccc2c1 [QUINOLINE] | 2.04 | 2.03
